Results: PubChem BioAssay AID256 (DTP/NCI, 2004)
Where “and” joins values, the source holds several entries; their conditions need not be identical. Equal values may be shown once. Toxic doses and inconclusive results are not listed.

System: CD2F1 mice, L1210 leukemia ip, survival T/C
Experiment: NCI In Vivo Anticancer Drug Screen. Data for tumor model L1210 Leukemia (intraperitoneal) in CD2F1 (CDF1) mice
Details: endpoint: mean survival time, higher = longer survival
Outline: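 Activity against a transplanted murine tumor was judged by comparing the compound group with a vehicle group. The outcome in the treated animals was divided by that in the controls.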

In the case of `C/C=C1/C=CC2c3[nH]c4ccccc4c3CCN2C1` (stereo not drawn), the T/C (dose: 20.0 mg/kg/injection, schedule: Q01DX001 (ip), vehicle: saline with Tween-80) was 93 % of control, the T/C (dose: 40.0 mg/kg/injection, schedule: Q01DX001 (ip), vehicle: saline with Tween-80) was 98 % of control and the T/C (dose: 80.0 mg/kg/injection, schedule: Q01DX001 (ip), vehicle: saline with Tween-80) was 90 % of control.
`COc1cc2ccc(/C=C\[N+](=O)[O-])cc2cc1OC` was tested, and the T/C (dose: 12.5 mg/kg/injection, schedule: Q01DX009 (ip), vehicle: water) was 94 % of control, the T/C (dose: 25.0 mg/kg/injection, schedule: Q01DX009 (ip), vehicle: water) was 102 % of control and the T/C (dose: 50.0 mg/kg/injection, schedule: Q01DX009 (ip), vehicle: water) was 96 % of control.
In the case of `O=C(NCCN1CCCCC1)C(O)(C1CCCCC1)C1CCCCC1`, the T/C (dose: 75.0 mg/kg/injection, schedule: Q01DX001 (ip), vehicle: saline) was 97 % of control, the T/C (dose: 150.0 mg/kg/injection, schedule: Q01DX001 (ip), vehicle: saline) was 97 % of control and the T/C (dose: 300.0 mg/kg/injection, schedule: Q01DX001 (ip), vehicle: saline) was 97 % of control.
In the case of `CC1CN1C(=O)NCCCCCCNC(=O)N1CC1C` (stereo not drawn), the T/C (dose: 0.31 mg/kg/injection, schedule: Q01DX009 (ip), vehicle: Klucel (hydroxypropylcellulose) (HPC)) was 89 % of control, the T/C (dose: 0.63 mg/kg/injection, schedule: Q01DX009 (ip), vehicle: Klucel (hydroxypropylcellulose) (HPC)) was 119 % of control and 101 % of control and the T/C (dose: 1.25 mg/kg/injection, schedule: Q01DX009 (ip), vehicle: Klucel (hydroxypropylcellulose) (HPC)) was 97 % of control. For the same molecule, the T/C (dose: 2.5 mg/kg/injection, schedule: Q01DX001 (ip), vehicle: Klucel (hydroxypropylcellulose) (HPC)) was 98 % of control, the T/C (dose: 2.5 mg/kg/injection, schedule: Q01DX009 (ip), vehicle: Klucel (hydroxypropylcellulose) (HPC)) was 110 % of control and the T/C (dose: 5.0 mg/kg/injection, schedule: Q01DX001 (ip), vehicle: Klucel (hydroxypropylcellulose) (HPC)) was 94 % of control. The T/C (dose: 5.0 mg/kg/injection, schedule: Q01DX009 (ip), vehicle: Klucel (hydroxypropylcellulose) (HPC)) was 156 % of control, the T/C (dose: 10.0 mg/kg/injection, schedule: Q01DX001 (ip), vehicle: Klucel (hydroxypropylcellulose) (HPC)) was 100 % of control and the T/C (dose: 20.0 mg/kg/injection, schedule: Q01DX001 (ip), vehicle: Klucel (hydroxypropylcellulose) (HPC)) was 107 % of control.
With `O=C(O[Si](Cc1ccccc1)(Cc1ccccc1)Cc1ccccc1)N(CCCl)CCCl` the T/C (dose: 6.25 mg/kg/injection, schedule: Q01DX009 (ip), vehicle: distilled water + Tween-80) was 109 % of control, the T/C (dose: 6.25 mg/kg/injection, schedule: Q01DX009 (ip), vehicle: saline with Tween-80) was 96 % of control and the T/C (dose: 12.5 mg/kg/injection, schedule: Q01DX009 (ip), vehicle: saline with Tween-80) was 103 % of control. The T/C (dose: 25.0 mg/kg/injection, schedule: Q01DX009 (ip), vehicle: distilled water + Tween-80) was 117 % of control, the T/C (dose: 25.0 mg/kg/injection, schedule: Q01DX009 (ip), vehicle: saline with Tween-80) was 111 % of control and the T/C (dose: 50.0 mg/kg/injection, schedule: Q01DX009 (ip), vehicle: saline with Tween-80) was 121 % of control. The T/C (dose: 100.0 mg/kg/injection, schedule: Q01DX009 (ip), vehicle: saline with Tween-80) was 123 % of control, the T/C (dose: 200.0 mg/kg/injection, schedule: Q01DX009 (ip), vehicle: distilled water + Tween-80) was 91 % of control and the T/C (dose: 200.0 mg/kg/injection, schedule: Q01DX009 (ip), vehicle: saline with Tween-80) was 152 % of control.
`O=NN(CCCl)C(=O)Nc1c[nH]c2ccccc12` was tested, and the T/C (dose: 177.0 mg/kg/injection, schedule: Q01DX001 (ip), vehicle: saline with Tween-80) was 96 % of control, the T/C (dose: 177.0 mg/kg/injection, schedule: Q01DX009 (ip), vehicle: saline with Tween-80) was 98 % of control and the T/C (dose: 265.0 mg/kg/injection, schedule: Q01DX001 (ip), vehicle: saline with Tween-80) was 97 % of control. The T/C (dose: 265.0 mg/kg/injection, schedule: Q01DX009 (ip), vehicle: saline with Tween-80) was 101 % of control, the T/C (dose: 400.0 mg/kg/injection, schedule: Q01DX001 (ip), vehicle: saline with Tween-80) was 92 % of control and the T/C (dose: 400.0 mg/kg/injection, schedule: Q01DX009 (ip), vehicle: saline with Tween-80) was 97 % of control. For the same molecule, the T/C (dose: 600.0 mg/kg/injection, schedule: Q01DX001 (ip), vehicle: saline with Tween-80) was 91 % of control.
`CN(C(=O)Nc1ccccc1)c1ccccc1` was tested, and the T/C (dose: 50.0 mg/kg/injection, schedule: Q01DX009 (ip), vehicle: other) was 104 % of control, the T/C (dose: 100.0 mg/kg/injection, schedule: Q01DX009 (ip), vehicle: other) was 97 % of control and the T/C (dose: 200.0 mg/kg/injection, schedule: Q01DX009 (ip), vehicle: other) was 97 % of control.
`CCCCOC(=O)COc1ccc(F)cc1` was tested, and the T/C (dose: 100.0 mg/kg/injection, schedule: Q04DX002 (ip), vehicle: saline with Tween-80) was 94 % of control, the T/C (dose: 200.0 mg/kg/injection, schedule: Q04DX002 (ip), vehicle: saline with Tween-80) was 94 % of control and the T/C (dose: 400.0 mg/kg/injection, schedule: Q04DX002 (ip), vehicle: saline with Tween-80) was 94 % of control.
With `NCC1OC(OC2C(CO)OC(OC3C(O)C(N)CC(N)C3OC3OC(CO)C(O)CC3N)C2O)C(N)C(O)C1OC1OC(CO)C(O)C(O)C1O` (stereo not drawn) the T/C (dose: 100.0 mg/kg/injection, schedule: Q04DX002 (ip), vehicle: saline) was 98 % of control, the T/C (dose: 200.0 mg/kg/injection, schedule: Q04DX002 (ip), vehicle: saline) was 92 % of control and the T/C (dose: 400.0 mg/kg/injection, schedule: Q04DX002 (ip), vehicle: saline) was 95 % of control.
